Publication PMC11647683, “Structural Aspects of Mycobacterium tuberculosis DNA Gyrase Targeted by Novel Bacterial Topoisomerase Inhibitors” (ACS Medicinal Chemistry Letters, 2024)
Like-named read-outs stand apart in the source and are kept apart here.

Experiments:
[1] = target: T1, M. tuberculosis DNA gyrase (Mycobacterium tuberculosis, UniProt P9WG47); test: biochemical; conditions: M. tuberculosis DNA gyrase supercoiling, 100 nM compound
T1 construct: purchased Inspiralis (Norwich, UK)

M. tuberculosis H37Rv [2] = test: microbe, parasite or virus in culture; assay type: cell-based; conditions: Mycobacterium tuberculosis; for IC50: read-out: Antituberculosis activity M. tuberculosis H37Rv IC50; for IC90: read-out: Antituberculosis activity M. tuberculosis H37Rv IC90
[3] = target: T1, M. tuberculosis DNA gyrase; test: biochemical; assay type: biochemical
hERG = hERG (Homo sapiens, UniProt Q12809)
M. tuberculosis H37Rv [4] = conditions: calculated from the published MIC value ref 26; cited from earlier work
[5] = reference wild-type strain, 90% inhibition of bacteria growth, mean of two independent measurements ± SD
[6] = M. tuberculosis gyrase supercoiling IC50, Assay 1, Assay 1 (single determination)
[7] = M. tuberculosis gyrase supercoiling IC50, Assay 2, Assay 2 (single determination)
[8] = supercoiling assay, mean of two independent measurements ± SD, read-out: Enzyme inhibition M. tuberculosis DNA gyrase IC50
[9] = Assay 1 (single determination), read-out: M. tuberculosis gyrase supercoiling IC50, Assay 1
[10] = Assay 2 (single determination), read-out: M. tuberculosis gyrase supercoiling IC50, Assay 2

T1 sequence (P9WG45 whole entry): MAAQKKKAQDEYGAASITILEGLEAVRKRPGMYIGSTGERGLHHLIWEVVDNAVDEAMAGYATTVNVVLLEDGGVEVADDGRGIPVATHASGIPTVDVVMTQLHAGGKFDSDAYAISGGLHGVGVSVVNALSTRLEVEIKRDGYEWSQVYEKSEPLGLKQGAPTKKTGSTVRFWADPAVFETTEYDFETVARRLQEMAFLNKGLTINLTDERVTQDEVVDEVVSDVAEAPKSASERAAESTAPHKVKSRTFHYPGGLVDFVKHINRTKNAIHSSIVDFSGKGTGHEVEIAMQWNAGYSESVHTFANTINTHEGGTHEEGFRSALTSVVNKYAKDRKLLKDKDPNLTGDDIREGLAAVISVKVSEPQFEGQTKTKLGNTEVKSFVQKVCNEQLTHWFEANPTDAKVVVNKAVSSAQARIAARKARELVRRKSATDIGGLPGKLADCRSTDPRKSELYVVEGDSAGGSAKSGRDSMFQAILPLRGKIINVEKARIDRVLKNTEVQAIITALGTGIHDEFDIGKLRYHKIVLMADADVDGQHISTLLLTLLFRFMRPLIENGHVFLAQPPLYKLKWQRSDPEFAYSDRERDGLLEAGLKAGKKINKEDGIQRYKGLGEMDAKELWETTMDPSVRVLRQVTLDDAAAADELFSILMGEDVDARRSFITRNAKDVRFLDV
T1 sequence (P9WG47 whole entry): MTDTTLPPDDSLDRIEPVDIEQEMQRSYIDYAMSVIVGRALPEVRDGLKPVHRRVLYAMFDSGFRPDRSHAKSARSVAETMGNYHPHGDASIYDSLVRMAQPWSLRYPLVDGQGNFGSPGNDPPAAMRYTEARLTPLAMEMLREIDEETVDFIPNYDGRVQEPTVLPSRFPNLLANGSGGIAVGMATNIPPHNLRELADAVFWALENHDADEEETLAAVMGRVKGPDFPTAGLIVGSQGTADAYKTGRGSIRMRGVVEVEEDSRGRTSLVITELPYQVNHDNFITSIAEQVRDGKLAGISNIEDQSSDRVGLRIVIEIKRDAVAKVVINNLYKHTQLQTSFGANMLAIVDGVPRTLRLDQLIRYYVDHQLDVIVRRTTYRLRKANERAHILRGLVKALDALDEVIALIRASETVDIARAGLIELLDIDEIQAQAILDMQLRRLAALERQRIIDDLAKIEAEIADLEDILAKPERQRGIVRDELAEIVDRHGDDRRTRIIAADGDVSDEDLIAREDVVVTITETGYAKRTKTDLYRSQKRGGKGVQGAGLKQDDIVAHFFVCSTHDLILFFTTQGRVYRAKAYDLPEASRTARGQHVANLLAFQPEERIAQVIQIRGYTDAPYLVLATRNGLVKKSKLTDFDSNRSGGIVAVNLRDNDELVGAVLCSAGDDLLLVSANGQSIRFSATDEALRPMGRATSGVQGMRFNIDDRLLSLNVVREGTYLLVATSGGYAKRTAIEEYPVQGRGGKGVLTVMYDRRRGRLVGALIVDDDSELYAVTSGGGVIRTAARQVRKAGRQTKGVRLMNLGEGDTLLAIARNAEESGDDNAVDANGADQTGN
Chain of hERG (Q12809 whole entry): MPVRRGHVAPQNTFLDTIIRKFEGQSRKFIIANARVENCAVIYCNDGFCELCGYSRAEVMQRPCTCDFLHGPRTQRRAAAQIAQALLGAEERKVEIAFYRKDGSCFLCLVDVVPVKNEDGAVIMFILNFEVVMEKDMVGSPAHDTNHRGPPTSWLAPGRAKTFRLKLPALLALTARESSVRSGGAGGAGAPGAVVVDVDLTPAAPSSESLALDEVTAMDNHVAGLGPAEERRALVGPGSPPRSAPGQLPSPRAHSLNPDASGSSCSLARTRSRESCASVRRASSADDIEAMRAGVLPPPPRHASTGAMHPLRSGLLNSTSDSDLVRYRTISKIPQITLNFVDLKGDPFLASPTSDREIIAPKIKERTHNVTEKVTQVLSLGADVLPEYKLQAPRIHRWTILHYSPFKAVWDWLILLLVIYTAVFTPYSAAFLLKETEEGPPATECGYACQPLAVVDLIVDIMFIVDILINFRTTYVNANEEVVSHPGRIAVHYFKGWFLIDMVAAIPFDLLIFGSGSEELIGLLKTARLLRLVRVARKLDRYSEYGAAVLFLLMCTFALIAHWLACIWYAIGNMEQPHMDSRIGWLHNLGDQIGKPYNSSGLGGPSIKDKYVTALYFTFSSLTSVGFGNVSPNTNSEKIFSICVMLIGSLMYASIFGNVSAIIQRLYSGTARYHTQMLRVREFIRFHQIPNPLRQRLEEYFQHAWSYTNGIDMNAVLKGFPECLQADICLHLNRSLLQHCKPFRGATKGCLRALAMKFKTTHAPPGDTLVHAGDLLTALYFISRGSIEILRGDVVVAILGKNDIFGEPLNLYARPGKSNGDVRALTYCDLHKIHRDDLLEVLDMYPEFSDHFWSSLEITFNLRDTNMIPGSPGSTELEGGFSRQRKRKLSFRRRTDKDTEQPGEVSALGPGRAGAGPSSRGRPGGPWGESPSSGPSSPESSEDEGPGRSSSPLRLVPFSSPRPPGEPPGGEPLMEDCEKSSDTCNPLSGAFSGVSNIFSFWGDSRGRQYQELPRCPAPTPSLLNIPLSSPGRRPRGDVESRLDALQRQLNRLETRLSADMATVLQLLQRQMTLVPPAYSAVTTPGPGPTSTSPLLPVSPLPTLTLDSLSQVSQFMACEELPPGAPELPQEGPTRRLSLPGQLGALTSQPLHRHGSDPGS

Structure (SMILES) | inhibition at 0.1 µM [1] [%] | also measured
COc1ccc2nccc(CCN3CCC(NCc4ccc(Br)c(F)c4)CC3)c2n1 [Compound 1] | 84.1 | IC50 (M. tuberculosis H37Rv [2]): 180 ± 45 nM; IC90 (M. tuberculosis H37Rv [2]; [5]): 200 ± 50 nM; IC50 [3, 6]: 397 nM; IC50 [3, 7]: 330 nM; IC50 [3, 8]: 363 ± 34 nM; IC50 (hERG): 455 nM
COc1ccc2nccc(CCN3CCC(NCc4ccc(I)c(F)c4)CC3)c2n1 [Compound 2] | 80.4 | IC50 (M. tuberculosis H37Rv [2]): 200 ± 25 nM; IC90 (M. tuberculosis H37Rv [2]; [5]): 270 ± 45 nM; IC50 [3, 6]: 155 nM; IC50 [3, 7]: 56 nM; IC50 [3, 8]: 105 ± 50 nM; IC50 (hERG): 243 nM
COc1ccc2nccc(CCN3CCC(NCc4cc(F)c(Cl)c(F)c4)CC3)c2n1 [Compound 3] | 90.2 | IC50 (M. tuberculosis H37Rv [2]): 71 ± 3 nM; IC90 (M. tuberculosis H37Rv [2]; [5]): 92 ± 8 nM; IC50 [3, 9]: 93 nM; IC50 [3, 10]: 91 nM; IC50 [3, 8]: 92 ± 1 nM; IC50 (hERG): 436 nM
COc1ccc2nccc(CCN3CCC(NCc4cc(F)c(Br)c(F)c4)CC3)c2n1 [Compound 4] | 99.8 | IC90 (M. tuberculosis H37Rv [2]; [5]): 62 ± 4 nM; IC50 [3, 9]: 89 nM; IC50 [3, 10]: 69 nM; IC50 [3, 8]: 79 ± 10 nM
COc1ccc2nccc(C(O)CC3CCC(NCc4cc(F)c(Br)c(F)c4)CC3)c2n1 (stereo not shown) [Compound 5] | 95 | IC90 (M. tuberculosis H37Rv [2]; [5]): 280 ± 65 nM; IC50 [3, 9]: 97 nM; IC50 [3, 10]: 96 nM; IC50 ([3]; average of Assay 1 and Assay 2, read-out: M. tuberculosis gyrase supercoiling IC50, Average): 96 nM; IC50 [3, 8]: 96 nM
COc1ccc2nccc(CCN3CCC(NCc4ccc(OC(F)F)c(OC)c4)CC3)c2n1 [Compound 6] | 0 | –
COc1ccc2nccc(CCN3CCC(NCc4ccc(OC(F)F)c(O)c4)CC3)c2n1 [Compound 7] | 3.47 | –
COc1ccc2nccc(CCN3CCC(NCc4ccc(C(F)(F)F)nc4)CC3)c2n1 [Compound 8] | 27.4 | –
COc1ccc2nccc(CCN3CCC(NCc4cnn(C(C)C)c4)CC3)c2n1 [Compound 9] | 7.45 | –
C=CCn1cc(CNC2CCN(CCc3ccnc4ccc(OC)nc34)CC2)cn1 [Compound 10] | 5.13 | –
COc1ccc2nccc(CCN3CCC(NCc4ccc(N(C)C)cc4)CC3)c2n1 [Compound 11] | 0 | –
COc1ccc(CNC2CCN(CCc3ccnc4ccc(OC)nc34)CC2)cn1 [Compound 12] | 0 | –
COc1ccc2nccc(CCN3CCC(NCc4ccccc4)CC3)c2n1 [Compound 13] | 0 | –
COc1ccc2nccc(CCN3CCC(NCc4ccc(F)cc4)CC3)c2n1 [Compound 14] | 0 | –
COc1ccc2nccc(CCN3CCC(NCc4ccc(Cl)cc4)CC3)c2n1 [Compound 15] | 44.8 | –
COc1ccc2nccc(CCN3CCC(NCc4ccc(Br)cc4)CC3)c2n1 [Compound 16] | 64.1 | –
COc1ccc2nccc(CCN3CCC(NCc4ccc(I)cc4)CC3)c2n1 [Compound 17] | 63.7 | –
COc1ccc2nccc(CCN3CCC(NCc4ccc(Cl)c(F)c4)CC3)c2n1 [Compound 18] | 52.2 | –
COc1ccc2nccc(CCN3CCC(NCc4ccc(Br)c(F)c4F)CC3)c2n1 [Compound 19] | 29.9 | –

Structure (SMILES) | inhibition at 0.1 µM [1] [%] | also measured
COc1ccc2nccc(CCN3CCC(NCc4cc(F)c(Br)cc4F)CC3)c2n1 [Compound 20] | 43.1 | –
COc1ccc2nccc(CCN3CCC(NCc4ccc(I)c(F)c4F)CC3)c2n1 [Compound 21] | 14.4 | –
COc1ccc2nccc(CCN3CCC(NCc4ccc(Cl)nc4)CC3)c2n1 [Compound 22] | 27.3 | –
COc1ccc2nccc(CCN3CCC(NCc4ccc(Cl)cn4)CC3)c2n1 [Compound 23] | 0 | –
COc1ccc2nccc(OCC3CCC(NCc4ccc(Cl)cc4)CC3)c2n1 (stereo not shown) [Compound 24] | 4.7 ± 4.7 | –
COc1ccc2nccc(OCC3CCC(NCc4ccc(Br)cc4)CC3)c2n1 (stereo not shown) [Compound 25] | 0 | –
COc1ccc2nccc(OCC3CCC(NCc4ccc(I)cc4)CC3)c2n1 (stereo not shown) [Compound 26] | 9.68 | –
COc1ccc2nccc(OCC3CCC(NCc4cc(F)c(Cl)c(F)c4)CC3)c2n1 (stereo not shown) [Compound 27] | 41.6 | –
COc1ccc2nccc(OCC3CCC(NCc4cc(F)c(Br)c(F)c4)CC3)c2n1 (stereo not shown) [Compound 28] | 23.8 | –
COc1ccc2nccc(OCC3CCC(NCc4ccc(I)c(F)c4)CC3)c2n1 (stereo not shown) [Compound 29] | 27.8 | –
COc1ccc2nccc(OCC3CCC(NCc4ccc(Cl)cc4)CO3)c2n1 (stereo not shown) [Compound 30] | 0 | –
COc1ccc2nccc(OCC3CCC(NCc4ccc(Br)cc4)CO3)c2n1 (stereo not shown) [Compound 31] | 0 | –
COc1ccc2nccc(OCC3CCC(NCc4ccc(I)cc4)CO3)c2n1 (stereo not shown) [Compound 32] | 0.6 | –
COc1ccc2nccc(OCC3CCC(NCc4cc(F)c(Br)c(F)c4)CO3)c2n1 (stereo not shown) [Compound 33] | 19.3 | –
COc1ccc2nccc(OCC3CCC(NCc4cc(F)c(Cl)c(F)c4)CO3)c2n1 (stereo not shown) [Compound 34] | 4.3 | –
COc1ccc2nccc(OCC3CCC(NCc4ccc(I)c(F)c4)CO3)c2n1 (stereo not shown) [Compound 35] | 20.3 | –
COc1ccc2nccc(C(O)CC3CCC(NCc4ccc(Br)cc4)CC3)c2n1 (stereo not shown) [Compound 36] | 24.9 | –
O=c1ccc2ncc(=O)n3c2n1C[C@H]3CN1CCC(NCc2cc3c(cn2)OCCC3)CC1 [Gepotidacin, reference compound] | – | IC50 (hERG): > 30000 nM; MIC (M. tuberculosis H37Rv [4]): g MIC = 0.86 μM value for Gepotidacin was calculated from the published MIC value.[26] “/” values were not found in the literature.
C[C@H]1COc2c(N3CCN(C)CC3)c(F)cc3c(=O)c(C(=O)O)cn1c23 [Levofloxacin, reference compound] | – | IC50 (M. tuberculosis H37Rv [2]): 590 nM; IC90 (M. tuberculosis H37Rv [2]): 980 nM
